# Publication PMC9354408, “How to Achieve Sufficient Endogenous Insulin Suppression in Euglycemic Clamps Assessing the Pharmacokinetics and Pharmacodynamics of Long-Acting Insulin Preparations Employing Healthy Volunteers” (Frontiers in Pharmacology, 2022)
# How the values were obtained:
# Format in all cases: in vivo, healthy Chinese men and women
# [1] = Manual euglycemic glucose clamp, glucose infusion rate (pharmacodynamics); details: for AUCGIR,0-24h / GIRmax / tGIRmax: 0.5 IU/kg s.c., arithmetic mean ± SD; for AUCGIR,0-12h: single 0.5 IU/kg s.c. IGlar (LY2963016 or Lantus), clamp up to 24 h, target BG 0.28 mmol/L below baseline, median (interquartile range); for GIRmax after correction / AUCGIR, 0–24 h after correction: corrected using the corresponding exogenous IGlar parameter as a covariant; for AUCGIR, 0–24 h after correction: first mention
# Description: (§1) All enrolled subjects underwent a euglycemic glucose clamp lasting for up to 24 h after a 0.5-IU/kg IGlar injection. All the participants were restrained from strenuous exercise, smoking, alcohol, or caffeinated drinks. Since a C-peptide suppression of more than 50% is widely recognized as sufficient endogenous insulin suppression, the subjects fell into two groups based on the ratio of C-peptide reduction from baseline (group A: C-peptide reduction <50%; group B: C-peptide reduction ≥50%). The data were collected from a clinical trial (NCT03555305) ([Liu et al., 2021]), which was conducted to evaluate the pharmacokinetic and pharmacodynamic equivalence of an IGlar biosimilar (LY2963016) manufactured by Eli Lilly to Lantus manufactured by Sanofi.
# At the dosing visit, an overnight fast of at least 8 h must be guaranteed prior to IGlar administration. Two catheters were placed into the antecubital vein and the hand vein, respectively, for 20% dextrose infusing and blood sampling correspondingly. The baseline of BG was defined as the mean of three BG measurements at 30, 20, and 10 min prior to the IGlar administration. A single dose (0.5 IU/kg) of Lantus or LY2963016 was subcutaneously injected into a lifted abdominal skinfold. A 0.1-ml blood sample was collected from the hand vein which was continuously heated in a warm blanket (55 ± 5 °C) at an interval of 10–20 min for the analysis of BG levels. A variable GIR was frequently adjusted and timely recorded to maintain the BG around 0.28 mmol/L below the baseline and represent the pharmacodynamic activity of IGlar, respectively.
# The BG levels were immediately determined in whole blood at the bedside by a glucose analyzer (Biosen C_line, EKF Diagnostics, Barleben, Germany) with the glucose oxidase method. The measuring range of this method was 0.5–50 mmol/L with a high precision of 1.5%. The clamp would end if no exogenous glucose infusion was required for at least 0.5 h.
# Individual GIR values were smoothed by a locally weighted scatterplot smoothing technique. The maximum GIR (GIRmax) and the total amount of glucose infused throughout the clamp (AUCGIR, 0–24 h) were defined as primary PD parameters. Secondary PD parameters included time to GIRmax (tGIRmax) and AUC of GIR from 0 to 12 h (AUCGIR, 0–12 h).
# [2] = Pharmacokinetics of exogenous IGlar (total insulin radioimmunoassay, C-peptide corrected by Owens's method); details: 0.5 IU/kg s.c., arithmetic mean ± SD; for AUCIGlar,0-12h / AUCIGlar,0-24h / IGlarmax: serum, C-peptide corrected
# Description: as §1
# (§2) A 6-ml blood sample for analysis of C-peptide and total insulin levels were collected before drug administration (0.5 and 0 h before dosing) and every 0.5–3 h throughout the clamp as described before ([Liu et al., 2021]). The whole blood sample was drawn into a serum tube and gently mixed by inversion (>5 times). Then the sample was required to clot for 30–60 min at room temperature. The tube was centrifuged at 1,500–2000g for 15–20 min to separate serum. The serum was transferred without red blood cells contained, and frozen at -70 °C until shipment for analysis. The concentration of total insulin was determined by a validated radioimmunoassay method ([Kuerzel et al., 2003]; [Shen et al., 2019]) with a quantification range of 50–2000 pmol/L at WuXi AppTec Co., Ltd. in Shanghai, China. The exogenous IGlar level was calculated by subtracting the endogenous insulin based on C-peptide using Owens’s method ([Owens, 1986]). The C-peptide concentration was analyzed by a direct chemiluminescent technology in Covance Laboratory (Shanghai, China) with a quantification range of 0.07–352 ng/ml.
# (§3) If a measured value of total insulin or C-peptide was below the lower limit of quantification, it would be included in statistics as half of the limit. A calculated value of IGlar below zero after C-peptide correction would be excluded from the PK statistics. The primary PK parameters included the area under the curve (AUC) of IGlar from time 0–24 h (AUCIGlar, 0–24 h) and the maximum IGlar (IGlarmax) corrected by C-peptide. Other PK parameters included AUC of IGlar from 0 to 12 h (AUCIGlar, 0–12 h) and time to IGlarmax (tIGlarmax).
# [3] = Serum total insulin during clamp (radioimmunoassay); parameters: AUCTotal insulin,0-12h / AUCTotal insulin,0-24h: unit not given here; details: 0.5 IU/kg s.c., arithmetic mean ± SD; for AUCTotal insulin,0-12h / AUCTotal insulin,0-24h: serum, before C-peptide correction
# Description: as §1, §2, §3
# [4] = system: endogenous insulin secretion; test: Serum C-peptide during clamp (endogenous insulin suppression, direct chemiluminescence); details: arithmetic mean ± SD; for Mean postdose C-peptide: after 0.5 IU/kg s.c. IGlar; for C-peptide reduction: postdose versus baseline
# Description: as §1, §2, §3
# [5] = group A (C-peptide reduction <50%), N = 52
# [6] = group B (C-peptide reduction >=50%), N = 26
substance,measurement,setting,value
insulin glargine [IGlar],"AUCGIR,0-24h",[1]; [5],"2,415 ± 953 mg/kg"
same,GIRmax,[1]; [5],2.82 ± 1.06 mg/kg/min
same,tGIRmax,[1]; [5],666 ± 202 min
same,"AUCGIR,0-12h",[1]; [5],989 (642) mg/kg
same,GIRmax after correction,[1]; group A,2.96 mg/kg/min
same,"AUCGIR, 0–24 h after correction",[1]; group A,"2,513 mg/kg"
same,"AUCGIR,0-24h",[1]; [6],"2,891 ± 908 mg/kg"
same,GIRmax,[1]; [6],3.36 ± 1.07 mg/kg/min
same,tGIRmax,[1]; [6],678 ± 180 min
same,"AUCGIR,0-12h",[1]; [6],"1,320 (615) mg/kg"
same,GIRmax after correction,[1]; group B,3.09 mg/kg/min
same,"AUCGIR, 0–24 h after correction",[1]; group B,"2,697 mg/kg"
same,tIGlarmax,[2]; [5],11.7 ± 3.97 h
same,"AUCIGlar,0-12h",[2]; [5],"1,099 ± 342 pmol/L×h"
same,"AUCIGlar,0-24h",[2]; [5],"2,194 ± 597 pmol/L×h"
same,IGlarmax,[2]; [5],122.7 ± 37.7 pmol/L
same,tIGlarmax,[2]; [6],11.6 ± 2.66 h
same,"AUCIGlar,0-12h",[2]; [6],"1,295 ± 360 pmol/L×h"
same,"AUCIGlar,0-24h",[2]; [6],"2,534 ± 597 pmol/L×h"
same,IGlarmax,[2]; [6],147.7 ± 42.5 pmol/L
same,Maximum total insulin,[3]; [5],151.8 ± 42.0 pmol/L
same,Time of maximum total insulin,[3]; [5],10.9 ± 5.55 h
same,"AUCTotal insulin,0-12h",[3]; [5],"1,444 ± 398"
same,"AUCTotal insulin,0-24h",[3]; [5],"2,853 ± 713"
same,Maximum total insulin,[3]; [6],162.1 ± 41.9 pmol/L
same,Time of maximum total insulin,[3]; [6],10.8 ± 3.77 h
same,"AUCTotal insulin,0-12h",[3]; [6],"1,510 ± 368"
same,"AUCTotal insulin,0-24h",[3]; [6],"2,958 ± 626"
same,Mean postdose C-peptide,[4]; [5],201 ± 74 pmol/L
same,C-peptide reduction,"[4]; group A (defined by C-peptide reduction <50%), N = 52",39.5 ± 6.7%
same,Mean postdose C-peptide,[4]; [6],134 ± 50 pmol/L
same,C-peptide reduction,"[4]; group B (defined by C-peptide reduction >=50%), N = 26",57.4 ± 5.5%
